Assay results reported in patent publication US20260232767A1, “INTERLEUKIN-23 RECEPTOR ANTAGONIST PEPTIDES FOR USE IN THE TREATMENT OF PSORIASIS” (Janssen Pharmaceutica NV, priority 2023, published 2026).

Tested on: subjects with moderate-to-severe plaque psoriasis
Assay: Safety, adverse events, Example 2 through Week 56
Assay type: in vivo, human
Details: 100 mg QD
Source text: The LTE safety analysis was based on randomized participants in Example who entered the present long-term extension study and received at least one dose of study intervention (including a partial dose) during the study period.

CC(=O)NCCCC[C@@H]1NC(=O)[C@H](Cc2c[nH]c3c(C)cccc23)NC(=O)[C@H]([C@@H](C)O)NC(=O)[C@H](CC(N)=O)NC(=O)[C@@H](NC(C)=O)C(C)(C)SSC(C)(C)[C@@H](C(=O)N[C@@H](Cc2ccc(OCCN)cc2)C(=O)N[C@@H](Cc2ccc3ccccc3c2)C(=O)NC2(C(=O)N[C@@H](CCC(=O)O)C(=O)N[C@@H](CC(N)=O)C(=O)N[C@@H](Cc3cccnc3)C(=O)N(C)CC(N)=O)CCOCC2)NC1=O [IL-23 receptor antagonist peptide, Ac-[Pen]*-N-T-[W(7-Me)]-[Lys(Ac)]-[Pen]*-Phe[4-(2-aminoethoxy)]-[2-Nal]-[THP]-E-N-[3-Pal]-Sarc-NH2 (*[Pen]-[Pen]* formdisulfidebond)]
Subjects with treatment-emergent AE: Bronchitis (Week 16-56): 0 | Subjects with treatment-emergent AE: Meniscus injury (Week 16-56): 0 | Subjects with treatment-emergent AE: Sinusitis (Week 16-56): 0 | Subjects with treatment-emergent AE: Urinary tract infection (Week 16-56): 0 | Subjects with treatment-emergent serious AE: Cardiac disorders (Week 16-56): 0 | Subjects with treatment-emergent serious AE: Cerebrovascular accident (Week 16-56): 0 | Subjects with treatment-emergent serious AE: Coronary artery disease (Week 16-56): 0 | Subjects with treatment-emergent serious AE: Foot deformity (Week 16-56): 0 | Subjects with treatment-emergent serious AE: General disorders and administration site conditions (Week 16-56): 0 | Subjects with treatment-emergent serious AE: Injury, poisoning and procedural complications (Week 16-56): 0 | Subjects with treatment-emergent serious AE: Ligament injury (Week 16-56): 0 | Subjects with treatment-emergent serious AE: Neoplasms benign, malignant and unspecified (incl cysts and polyps) (Week 16-56): 0 | Subjects with treatment-emergent serious AE: Nervous system disorders (Week 16-56): 0 | Subjects with treatment-emergent serious AE: Non-cardiac chest pain (Week 16-56): 0 | Subjects with treatment-emergent serious AE: Respiratory, thoracic and mediastinal disorders (Week 16-56): 0 | Subjects with treatment-emergent serious AE: Tonsillar hypertrophy (Week 16-56): 0 | Subjects with treatment-emergent serious AE: Uterine leiomyoma (Week 16-56): 0 | Subjects with treatment-emergent serious AE: Ventricular dysfunction (Week 16-56): 0 | Acrochordon: % of subjects (through Week 56): (2.3%) | Acrochordon: number of subjects (through Week 56): 1 | Actinic keratosis: number of subjects (through Week 56): 0 | Alopecia: number of subjects (through Week 56): 0 | Asthenia: number of subjects (through Week 56): 0 | Asthma: % of subjects (through Week 56): (2.3%) | Asthma: number of subjects (through Week 56): 1 | Atrioventricular block first degree: % of subjects (through Week 56): (2.3%) | Atrioventricular block first degree: number of subjects (through Week 56): 1 | Basal cell carcinoma: number of subjects (through Week 56): 0 | Blood and lymphatic system disorders: number of subjects (through Week 56): 0 | Bronchitis chronic: % of subjects (through Week 56): (2.3%) | Bronchitis chronic: number of subjects (through Week 56): 1 | Bundle branch block right: number of subjects (through Week 56): 0 | Cardiac disorders: % of subjects (through Week 56): (2.3%) | Cardiac disorders: number of subjects (through Week 56): 1 | Chills: % of subjects (through Week 56): (2.3%) | Chills: number of subjects (through Week 56): 1 | Cholelithiasis: % of subjects (through Week 56): (2.3%) | Cholelithiasis: number of subjects (through Week 56): 1 | Chronic obstructive pulmonary disease: % of subjects (through Week 56): (2.3%) | Chronic obstructive pulmonary disease: number of subjects (through Week 56): 1 | Coronary artery disease: number of subjects (through Week 56): 0 | Cough: % of subjects (through Week 56): (7.0%) | Cough: number of subjects (through Week 56): 3 | Decreased appetite: number of subjects (through Week 56): 0 | Depression: % of subjects (through Week 56): (2.3%) | Depression: number of subjects (through Week 56): 1 | Dermal cyst: number of subjects (through Week 56): 0 | Dermatitis acneiform: number of subjects (through Week 56): 0 | Dermatitis contact: % of subjects (through Week 56): (2.3%) | Dermatitis contact: number of subjects (through Week 56): 1 | Diabetes mellitus: number of subjects (through Week 56): 0 | Diffuse alopecia: number of subjects (through Week 56): 0 | Dysuria: number of subjects (through Week 56): 0 | Ear and labyrinth disorders: % of subjects (through Week 56): (2.3%) | Ear and labyrinth disorders: number of subjects (through Week 56): 1 | Endocrine disorders: number of subjects (through Week 56): 0 | Eye disorders: number of subjects (through Week 56): 0 | Eyelid skin dryness: number of subjects (through Week 56): 0 | Fatigue: % of subjects (through Week 56): (2.3%) | Fatigue: number of subjects (through Week 56): 1 | General disorders and administration site conditions: % of subjects (through Week 56): (7.0%) | General disorders and administration site conditions: number of subjects (through Week 56): 3 | Goiter: number of subjects (through Week 56): 0 | Haemochromatosis: number of subjects (through Week 56): 0 | Hand dermatitis: number of subjects (through Week 56): 0 | Hematuria: number of subjects (through Week 56): 0 | Hepatobiliary disorders: % of subjects (through Week 56): (2.3%) | Hepatobiliary disorders: number of subjects (through Week 56): 1 | Hypercholesterolemia: % of subjects (through Week 56): (2.3%) | Hypercholesterolemia: number of subjects (through Week 56): 1 | Hyperglycemia: % of subjects (through Week 56): (2.3%) | Hyperglycemia: number of subjects (through Week 56): 1 | Hyperlipidemia: number of subjects (through Week 56): 0 | Hypertension: % of subjects (through Week 56): (2.3%) | Hypertension: number of subjects (through Week 56): 1 | Hypertransaminasemia: number of subjects (through Week 56): 0 | Hypertriglyceridemia: number of subjects (through Week 56): 0 | Hypoacusis: number of subjects (through Week 56): 0 | Immune system disorders: number of subjects (through Week 56): 0 | Influenza like illness: number of subjects (through Week 56): 0 | Insomnia: % of subjects (through Week 56): (2.3%) | Insomnia: number of subjects (through Week 56): 1 | Intertrigo: number of subjects (through Week 56): 0 | Ketonuria: number of subjects (through Week 56): 0 | Leukocyturia: % of subjects (through Week 56): (2.3%) | Leukocyturia: number of subjects (through Week 56): 1 | Leukopenia: number of subjects (through Week 56): 0 | Libido decreased: % of subjects (through Week 56): (2.3%) | Libido decreased: number of subjects (through Week 56): 1 | Liver disorder: number of subjects (through Week 56): 0 | Lymphopenia: number of subjects (through Week 56): 0 | Menopause: number of subjects (through Week 56): 0 | Metabolism and nutrition disorders: % of subjects (through Week 56): (4.7%) | Metabolism and nutrition disorders: number of subjects (through Week 56): 2 | Neoplasms benign, malignant and unspecified (incl cysts and polyps): % of subjects (through Week 56): (2.3%) | Neoplasms benign, malignant and unspecified (incl cysts and polyps): number of subjects (through Week 56): 1 | Nephrolithiasis: % of subjects (through Week 56): (2.3%) | Nephrolithiasis: number of subjects (through Week 56): 1 | Neutropenia: number of subjects (through Week 56): 0 | Night sweats: number of subjects (through Week 56): 0 | Non-cardiac chest pain: number of subjects (through Week 56): 0 | Ocular cyst: number of subjects (through Week 56): 0 | Oedema peripheral: % of subjects (through Week 56): (2.3%) | Oedema peripheral: number of subjects (through Week 56): 1 | Oropharyngeal pain: % of subjects (through Week 56): (2.3%) | Oropharyngeal pain: number of subjects (through Week 56): 1 | Procedural pain: number of subjects (through Week 56): 0 | Productive cough: number of subjects (through Week 56): 0 | Proteinuria: number of subjects (through Week 56): 0 | Pruritus: % of subjects (through Week 56): (2.3%) | Pruritus: number of subjects (through Week 56): 1 | Psoriasis: number of subjects (through Week 56): 0 | Psychiatric disorders: % of subjects (through Week 56): (7.0%) | Psychiatric disorders: number of subjects (through Week 56): 3 | Pyrexia: number of subjects (through Week 56): 0 | Rash pruritic: number of subjects (through Week 56): 0 | Renal and urinary disorders: % of subjects (through Week 56): (4.7%) | Renal and urinary disorders: number of subjects (through Week 56): 2 | Renal mass: number of subjects (through Week 56): 0 | Respiratory, thoracic and mediastinal disorders: % of subjects (through Week 56): (9.3%)
